# Test results published in paper PMC5862592, “CDK8/19 inhibition induces premature G1/S transition and ATR-dependent cell death in prostate cancer cells” (Oncotarget, 2018).
# Read-outs that look alike come from different tables or passages of the source.
# Experiments:
# Experiment in all cases: biochemical
# Set-up in all cases: KINOMEscan active site-directed competition binding assay (DiscoveRx), 456 kinases, per cent of control at 300 nM
# Conditions in all cases: read-out: Percent of Control (%)
# NEK10 = NEK10 (Homo sapiens, UniProt Q6ZWH5)
# In short: (§1)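 Binding was measured with an active site-directed competition binding assay that quantifies compound–kinase interactions. Test compounds were screened at 300 nmol/L across a 456-kinase panel.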
# ERN1 = ERN1 (Homo sapiens, UniProt O75460)
# In short: as §1
# PIK4CB = target: T1, PIK4CB (Homo sapiens, UniProt Q9UBF8)
# T1 construct: gene PI4KB
# In short: as §1
# IKK-epsilon = target: T2, IKK-epsilon (Homo sapiens, UniProt Q14164)
# T2 construct: gene IKBKE
# In short: as §1
# KIT-autoinhibited = KIT-autoinhibited (Homo sapiens, UniProt P10721)
# In short: as §1
# TNK2 = TNK2 (Homo sapiens, UniProt Q07912)
# In short: as §1
# CSNK1A1L = CSNK1A1L (Homo sapiens, UniProt Q8N752)
# In short: as §1
# NEK7 = NEK7 (Homo sapiens, UniProt Q8TDX7)
# In short: as §1
# ERBB3 = ERBB3 (Homo sapiens, UniProt P21860)
# In short: as §1
# PDPK1 = PDPK1 (Homo sapiens, UniProt O15530)
# In short: as §1
# TESK1 = TESK1 (Homo sapiens, UniProt Q15569)
# In short: as §1
# MEK5 = target: T3, MEK5 (Homo sapiens, UniProt Q13163)
# T3 construct: gene MAP2K5
# In short: as §1
# DAPK1 = DAPK1 (Homo sapiens, UniProt P53355)
# In short: as §1
# p38-beta = target: T4, p38-beta (Homo sapiens, UniProt Q15759)
# T4 construct: gene MAPK11
# In short: as §1
# PCTK1 = target: T5, PCTK1 (Homo sapiens, UniProt Q00536)
# T5 construct: gene CDK16
# In short: as §1
# PHKG1 = PHKG1 (Homo sapiens, UniProt Q16816)
# In short: as §1
# KIT(V559D,T670I) = KIT(V559D,T670I) (Homo sapiens, UniProt P10721, T670I/V559D)
# In short: as §1
# MEK3 = target: T6, MEK3 (Homo sapiens, UniProt P46734)
# T6 construct: gene MAP2K3
# In short: as §1
# ACVR2A = ACVR2A (Homo sapiens, UniProt P27037)
# In short: as §1
# CAMK1 = CAMK1 (Homo sapiens, UniProt Q14012)
# In short: as §1
# ULK2 = ULK2 (Homo sapiens, UniProt Q8IYT8)
# In short: as §1
# SIK = target: T7, SIK (Homo sapiens, UniProt P57059)
# T7 construct: gene SIK1
# In short: as §1
# Chain of NEK10 (Q6ZWH5 whole entry): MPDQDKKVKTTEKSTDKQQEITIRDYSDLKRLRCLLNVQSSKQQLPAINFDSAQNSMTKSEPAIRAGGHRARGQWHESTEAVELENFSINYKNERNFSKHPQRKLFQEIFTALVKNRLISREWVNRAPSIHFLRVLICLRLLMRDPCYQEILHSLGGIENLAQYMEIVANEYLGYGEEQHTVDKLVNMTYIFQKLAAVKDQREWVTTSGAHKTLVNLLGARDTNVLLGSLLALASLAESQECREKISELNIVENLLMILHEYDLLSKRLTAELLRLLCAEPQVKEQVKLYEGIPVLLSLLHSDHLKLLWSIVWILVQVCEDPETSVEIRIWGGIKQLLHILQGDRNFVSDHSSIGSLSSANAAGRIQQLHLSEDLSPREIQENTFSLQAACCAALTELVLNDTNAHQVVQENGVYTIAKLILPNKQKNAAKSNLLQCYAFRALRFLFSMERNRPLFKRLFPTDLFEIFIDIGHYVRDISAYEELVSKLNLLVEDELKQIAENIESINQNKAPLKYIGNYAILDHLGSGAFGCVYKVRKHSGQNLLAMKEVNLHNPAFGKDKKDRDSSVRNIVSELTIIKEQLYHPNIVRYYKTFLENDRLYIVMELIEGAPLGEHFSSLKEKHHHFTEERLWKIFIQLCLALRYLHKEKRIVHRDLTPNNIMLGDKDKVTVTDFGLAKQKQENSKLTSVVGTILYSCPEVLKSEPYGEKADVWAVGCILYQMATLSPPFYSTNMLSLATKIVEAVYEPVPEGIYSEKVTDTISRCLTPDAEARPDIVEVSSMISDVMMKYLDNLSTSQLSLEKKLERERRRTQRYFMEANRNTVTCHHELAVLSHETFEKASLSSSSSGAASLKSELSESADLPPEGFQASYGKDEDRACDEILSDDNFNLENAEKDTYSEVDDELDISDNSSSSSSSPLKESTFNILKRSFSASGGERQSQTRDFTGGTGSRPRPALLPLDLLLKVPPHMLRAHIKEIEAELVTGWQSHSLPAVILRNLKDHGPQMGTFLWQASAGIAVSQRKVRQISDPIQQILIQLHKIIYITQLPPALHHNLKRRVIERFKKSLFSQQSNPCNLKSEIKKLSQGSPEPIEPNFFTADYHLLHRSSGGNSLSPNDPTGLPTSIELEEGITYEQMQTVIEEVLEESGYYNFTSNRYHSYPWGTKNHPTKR
# T4 sequence (Q15759 whole entry): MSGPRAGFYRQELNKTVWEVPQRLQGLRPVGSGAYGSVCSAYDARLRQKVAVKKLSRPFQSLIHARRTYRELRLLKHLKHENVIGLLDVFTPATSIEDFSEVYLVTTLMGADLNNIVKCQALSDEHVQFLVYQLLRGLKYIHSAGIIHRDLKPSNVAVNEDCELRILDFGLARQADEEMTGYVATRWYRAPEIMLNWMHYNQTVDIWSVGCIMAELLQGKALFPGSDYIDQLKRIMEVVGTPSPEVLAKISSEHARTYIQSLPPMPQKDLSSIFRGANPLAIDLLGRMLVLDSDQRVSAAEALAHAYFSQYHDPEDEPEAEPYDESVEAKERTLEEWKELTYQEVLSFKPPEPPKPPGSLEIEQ
# T7 sequence (P57059 whole entry): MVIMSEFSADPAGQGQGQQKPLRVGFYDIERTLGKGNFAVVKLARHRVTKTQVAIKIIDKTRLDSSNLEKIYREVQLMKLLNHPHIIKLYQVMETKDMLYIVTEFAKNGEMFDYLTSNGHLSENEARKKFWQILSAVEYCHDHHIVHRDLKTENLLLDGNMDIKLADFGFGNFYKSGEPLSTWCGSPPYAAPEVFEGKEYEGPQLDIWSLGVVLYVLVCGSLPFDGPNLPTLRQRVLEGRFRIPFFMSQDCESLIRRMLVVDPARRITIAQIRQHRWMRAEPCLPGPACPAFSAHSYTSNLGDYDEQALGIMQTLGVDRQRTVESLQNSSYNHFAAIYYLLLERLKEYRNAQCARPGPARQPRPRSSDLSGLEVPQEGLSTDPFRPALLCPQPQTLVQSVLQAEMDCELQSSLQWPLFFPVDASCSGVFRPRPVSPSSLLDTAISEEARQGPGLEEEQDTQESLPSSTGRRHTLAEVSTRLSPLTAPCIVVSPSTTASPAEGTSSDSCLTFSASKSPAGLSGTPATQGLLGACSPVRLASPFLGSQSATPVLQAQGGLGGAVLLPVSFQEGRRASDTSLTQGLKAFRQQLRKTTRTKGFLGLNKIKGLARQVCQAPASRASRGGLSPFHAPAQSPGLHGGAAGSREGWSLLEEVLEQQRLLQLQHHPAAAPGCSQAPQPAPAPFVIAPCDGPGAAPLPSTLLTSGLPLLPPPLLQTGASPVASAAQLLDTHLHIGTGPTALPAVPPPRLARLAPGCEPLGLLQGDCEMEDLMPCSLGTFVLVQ
# T2 sequence (Q14164 whole entry): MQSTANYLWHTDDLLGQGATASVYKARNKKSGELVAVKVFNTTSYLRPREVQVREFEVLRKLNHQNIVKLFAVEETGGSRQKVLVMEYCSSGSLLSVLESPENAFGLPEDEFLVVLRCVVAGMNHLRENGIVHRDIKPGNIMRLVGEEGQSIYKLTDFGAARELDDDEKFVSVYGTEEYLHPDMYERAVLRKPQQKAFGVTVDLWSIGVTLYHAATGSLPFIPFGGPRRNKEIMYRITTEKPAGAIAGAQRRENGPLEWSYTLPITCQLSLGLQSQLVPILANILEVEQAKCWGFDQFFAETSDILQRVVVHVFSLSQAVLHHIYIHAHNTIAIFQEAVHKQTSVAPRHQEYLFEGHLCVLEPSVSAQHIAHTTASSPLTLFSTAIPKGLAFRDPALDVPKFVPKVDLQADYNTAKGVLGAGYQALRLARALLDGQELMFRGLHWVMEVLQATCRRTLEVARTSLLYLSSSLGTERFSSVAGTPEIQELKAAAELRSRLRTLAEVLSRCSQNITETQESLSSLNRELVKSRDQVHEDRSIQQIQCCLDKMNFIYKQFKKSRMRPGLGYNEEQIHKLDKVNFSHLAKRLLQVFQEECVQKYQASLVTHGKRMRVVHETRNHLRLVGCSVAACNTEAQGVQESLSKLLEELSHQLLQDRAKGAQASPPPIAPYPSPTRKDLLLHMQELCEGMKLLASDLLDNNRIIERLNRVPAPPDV
# Chain of DAPK1 (P53355 whole entry): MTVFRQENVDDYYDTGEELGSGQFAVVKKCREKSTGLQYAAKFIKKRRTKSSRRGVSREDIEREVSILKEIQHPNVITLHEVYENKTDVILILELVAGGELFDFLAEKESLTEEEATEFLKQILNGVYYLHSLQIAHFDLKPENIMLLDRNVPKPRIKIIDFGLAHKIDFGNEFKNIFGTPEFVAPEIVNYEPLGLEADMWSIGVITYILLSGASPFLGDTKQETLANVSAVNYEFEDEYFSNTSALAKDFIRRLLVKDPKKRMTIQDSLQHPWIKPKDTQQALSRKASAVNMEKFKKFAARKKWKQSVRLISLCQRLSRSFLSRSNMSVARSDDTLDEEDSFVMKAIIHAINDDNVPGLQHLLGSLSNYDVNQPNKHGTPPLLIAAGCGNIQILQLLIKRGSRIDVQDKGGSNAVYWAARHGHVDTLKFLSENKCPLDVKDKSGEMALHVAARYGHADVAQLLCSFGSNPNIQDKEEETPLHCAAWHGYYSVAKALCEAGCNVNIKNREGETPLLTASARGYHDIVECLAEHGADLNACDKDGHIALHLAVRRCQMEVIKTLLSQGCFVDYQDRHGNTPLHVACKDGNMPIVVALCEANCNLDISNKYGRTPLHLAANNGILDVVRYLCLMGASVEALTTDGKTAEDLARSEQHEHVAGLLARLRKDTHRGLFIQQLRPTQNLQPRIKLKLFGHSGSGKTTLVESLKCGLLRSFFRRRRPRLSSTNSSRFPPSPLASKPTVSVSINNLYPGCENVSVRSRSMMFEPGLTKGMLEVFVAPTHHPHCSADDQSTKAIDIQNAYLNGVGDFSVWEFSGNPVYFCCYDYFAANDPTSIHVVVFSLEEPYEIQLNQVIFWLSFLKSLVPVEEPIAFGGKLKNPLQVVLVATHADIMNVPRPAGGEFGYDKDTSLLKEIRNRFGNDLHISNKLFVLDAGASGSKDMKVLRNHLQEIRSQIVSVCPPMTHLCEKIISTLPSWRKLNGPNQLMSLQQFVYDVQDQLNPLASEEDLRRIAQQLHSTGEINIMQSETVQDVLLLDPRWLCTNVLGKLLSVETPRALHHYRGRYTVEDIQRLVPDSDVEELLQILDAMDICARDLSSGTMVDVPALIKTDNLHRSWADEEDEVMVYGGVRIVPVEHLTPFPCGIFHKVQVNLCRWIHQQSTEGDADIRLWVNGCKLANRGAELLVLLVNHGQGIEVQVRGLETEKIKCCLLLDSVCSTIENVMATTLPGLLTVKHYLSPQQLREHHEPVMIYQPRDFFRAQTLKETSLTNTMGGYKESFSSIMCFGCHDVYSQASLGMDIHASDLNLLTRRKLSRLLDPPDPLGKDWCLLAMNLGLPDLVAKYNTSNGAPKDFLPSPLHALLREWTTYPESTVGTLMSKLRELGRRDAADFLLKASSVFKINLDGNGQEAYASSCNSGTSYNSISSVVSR
# Chain of CSNK1A1L (Q8N752 whole entry): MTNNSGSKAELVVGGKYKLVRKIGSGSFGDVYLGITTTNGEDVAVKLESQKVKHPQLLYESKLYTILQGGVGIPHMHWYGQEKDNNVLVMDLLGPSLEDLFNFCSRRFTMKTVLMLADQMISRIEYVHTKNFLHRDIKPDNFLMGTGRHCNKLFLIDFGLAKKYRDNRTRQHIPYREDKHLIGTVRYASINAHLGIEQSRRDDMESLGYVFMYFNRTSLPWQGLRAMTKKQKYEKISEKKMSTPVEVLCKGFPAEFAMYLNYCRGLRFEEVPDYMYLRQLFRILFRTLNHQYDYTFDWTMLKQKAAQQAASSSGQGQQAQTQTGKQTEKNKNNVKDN
compound,measurement,setting,value
"Cc1ncccc1Oc1sc(C(N)=O)c2c1-c1c(cnn1C)CC2 [T-474, 1-methyl-8-((2-methylpyridin-3-yl)oxy)-4,5-dihydro-1H-thieno[3,4-g]indazole-6-carboxamide]",remaining binding at 0.3 µM,NEK10,100%
same,remaining binding at 0.3 µM,ERN1,89%
same,remaining binding at 0.3 µM,PIK4CB,100%
same,remaining binding at 0.3 µM,IKK-epsilon,100%
same,remaining binding at 0.3 µM,KIT-autoinhibited,100%
same,remaining binding at 0.3 µM,TNK2,100%
same,remaining binding at 0.3 µM,CSNK1A1L,100%
same,remaining binding at 0.3 µM,NEK7,100%
same,remaining binding at 0.3 µM,ERBB3,78%
same,remaining binding at 0.3 µM,PDPK1,70%
same,remaining binding at 0.3 µM,TESK1,100%
same,remaining binding at 0.3 µM,MEK5,100%
same,remaining binding at 0.3 µM,DAPK1,100%
same,remaining binding at 0.3 µM,p38-beta,64%
same,remaining binding at 0.3 µM,PCTK1,100%
same,remaining binding at 0.3 µM,PHKG1,100%
same,remaining binding at 0.3 µM,"KIT(V559D,T670I)",100%
same,remaining binding at 0.3 µM,MEK3,100%
same,remaining binding at 0.3 µM,ACVR2A,87%
same,remaining binding at 0.3 µM,CAMK1,66%
same,remaining binding at 0.3 µM,ULK2,100%
same,remaining binding at 0.3 µM,SIK,100%
"O=C(/C=C/c1cnccc1-c1ccc(F)cc1)Nc1ccc(CCc2nnco2)cc1 [T-418, (2E)-3-(4-(4-fluorophenyl)pyridin-3-yl)-N-(4-(2-(1,3,4-oxadiazol-2-yl)ethyl)phenyl)acrylamide]",remaining binding at 0.3 µM,NEK10; sheet T-418,100%
same,remaining binding at 0.3 µM,ERN1; sheet T-418,100%
same,remaining binding at 0.3 µM,PIK4CB; sheet T-418,100%
same,remaining binding at 0.3 µM,IKK-epsilon; sheet T-418,100%
same,remaining binding at 0.3 µM,KIT-autoinhibited; sheet T-418,100%
same,remaining binding at 0.3 µM,TNK2; sheet T-418,100%
same,remaining binding at 0.3 µM,CSNK1A1L; sheet T-418,92%
same,remaining binding at 0.3 µM,NEK7; sheet T-418,100%
same,remaining binding at 0.3 µM,ERBB3; sheet T-418,76%
same,remaining binding at 0.3 µM,PDPK1; sheet T-418,64%
same,remaining binding at 0.3 µM,TESK1; sheet T-418,99%
same,remaining binding at 0.3 µM,MEK5; sheet T-418,100%
same,remaining binding at 0.3 µM,DAPK1; sheet T-418,100%
same,remaining binding at 0.3 µM,p38-beta; sheet T-418,77%
same,remaining binding at 0.3 µM,PCTK1; sheet T-418,98%
same,remaining binding at 0.3 µM,PHKG1; sheet T-418,90%
same,remaining binding at 0.3 µM,"KIT(V559D,T670I); sheet T-418",77%
same,remaining binding at 0.3 µM,MEK3; sheet T-418,100%
same,remaining binding at 0.3 µM,ACVR2A; sheet T-418,91%
same,remaining binding at 0.3 µM,CAMK1; sheet T-418,70%
same,remaining binding at 0.3 µM,ULK2; sheet T-418,100%
same,remaining binding at 0.3 µM,SIK; sheet T-418,87%
